The Kinase Knowledgebase extract (Sharma et al. 2016)

Molecular target: PIK3CG (human) (UniProt P48736)
Test: Assessment of PIK3CG Kinase Activity

Sequence of PIK3CG (human) (P48736 whole entry, looked up): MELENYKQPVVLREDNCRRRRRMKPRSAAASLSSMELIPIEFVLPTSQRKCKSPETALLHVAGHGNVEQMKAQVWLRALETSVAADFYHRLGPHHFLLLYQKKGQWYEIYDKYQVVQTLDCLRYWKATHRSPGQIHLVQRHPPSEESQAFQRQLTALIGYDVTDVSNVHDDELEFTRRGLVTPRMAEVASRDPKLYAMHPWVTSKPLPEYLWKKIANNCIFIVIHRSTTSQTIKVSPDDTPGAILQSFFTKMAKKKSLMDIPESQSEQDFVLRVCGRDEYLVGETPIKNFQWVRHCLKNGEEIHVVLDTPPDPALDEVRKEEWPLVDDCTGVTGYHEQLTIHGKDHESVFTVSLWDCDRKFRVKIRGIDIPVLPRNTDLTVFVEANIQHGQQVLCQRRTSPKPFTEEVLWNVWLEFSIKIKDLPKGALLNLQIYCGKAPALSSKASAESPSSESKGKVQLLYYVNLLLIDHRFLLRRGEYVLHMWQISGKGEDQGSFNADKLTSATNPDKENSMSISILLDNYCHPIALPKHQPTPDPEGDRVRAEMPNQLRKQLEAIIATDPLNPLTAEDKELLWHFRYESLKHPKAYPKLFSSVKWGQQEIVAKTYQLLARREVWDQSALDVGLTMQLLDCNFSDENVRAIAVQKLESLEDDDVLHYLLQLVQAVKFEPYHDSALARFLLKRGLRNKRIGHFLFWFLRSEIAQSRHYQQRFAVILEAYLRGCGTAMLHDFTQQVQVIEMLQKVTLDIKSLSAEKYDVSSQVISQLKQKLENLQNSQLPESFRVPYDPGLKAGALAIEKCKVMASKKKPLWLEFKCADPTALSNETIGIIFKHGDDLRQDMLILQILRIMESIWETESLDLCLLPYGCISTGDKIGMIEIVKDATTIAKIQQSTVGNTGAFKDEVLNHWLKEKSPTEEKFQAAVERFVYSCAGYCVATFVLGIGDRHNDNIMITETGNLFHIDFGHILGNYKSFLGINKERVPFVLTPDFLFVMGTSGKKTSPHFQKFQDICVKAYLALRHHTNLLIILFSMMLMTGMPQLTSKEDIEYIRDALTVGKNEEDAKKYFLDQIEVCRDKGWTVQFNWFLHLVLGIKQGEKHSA

Row | Compound | IC50 [nM]
1 | NC(=O)c1cccc(CNC(=O)Nc2nc3c(s2)-c2c(c(-c4cccnc4)nn2C2CCN(C4CCCC4)CC2)CC3)c1 | < 800
2 | CCOC(=O)CCCNC(=O)Nc1nc2c(s1)-c1c(c(-c3ccccc3)nn1-c1ccccc1Cl)CC2 | < 800
3 | O=C(Nc1nc2c(s1)-c1c(c(-c3cccnc3)nn1-c1ccccc1Cl)CC2)N1CCCC(c2ccccc2O)C1 (configuration not stated) | < 800
4 | CC(C)(C)OC(=O)NCCNC(=O)Nc1nc2c(s1)-c1c(c(-c3ccccc3)nn1-c1ccccc1Cl)CC2 | < 800
5 | NC(=O)c1cccc(CNC(=O)Nc2nc3c(s2)-c2c(c(C4CC4)nn2-c2ccccc2Cl)CC3)c1 | < 800
6 | CC(C)(C)OC(=O)Nc1cccc(CNC(=O)Nc2nc3c(s2)-c2c(c(-c4cncnc4)nn2-c2ccccc2Cl)CC3)c1 | < 800
7 | O=C(NCc1cccc(N2CCNC2=O)c1)Nc1nc2c(s1)-c1c(c(-c3cccnc3)nn1-c1ccccc1Cl)CC2 | < 800
8 | O=C(NCC1CCCCN1)Nc1nc2c(s1)-c1c(c(-c3cncnc3)nn1-c1ccccc1Cl)CC2 (configuration not stated) | < 800
9 | CN(C)C(=O)CNC(=O)Nc1nc2c(s1)-c1c(c(-c3cccnc3)nn1C1CCN(C3CCCC3)CC1)CC2 | < 800
10 | O=C(NCCc1cccc(N2CCNC2=O)c1)Nc1nc2c(s1)-c1c(c(-c3cccnc3)nn1-c1ccccc1Cl)CC2 | < 800
11 | O=C(Nc1ccccc1)Nc1nc2c(s1)-c1c(c(-c3cncnc3)nn1-c1ccccc1Cl)CC2 | < 800
12 | O=C(NCC1CCCNC1)Nc1nc2c(s1)-c1c(c(-c3cncnc3)nn1-c1ccccc1Cl)CC2 (configuration not stated) | < 800
13 | CC(C)(C)OC(=O)NCC1CCCN1C(=O)Nc1nc2c(s1)-c1c(c(-c3cccnc3)nn1-c1ccccc1Cl)CC2 (configuration not stated) | < 800
14 | Cn1cc(CNC(=O)Nc2nc3c(s2)-c2c(c(-c4cccnc4)nn2C2CCN(C4CCCC4)CC2)CC3)cn1 | < 800
15 | CCc1noc(CCNC(=O)Nc2nc3c(s2)-c2c(c(-c4cccnc4)nn2-c2ccccc2Cl)CC3)n1 | < 800
16 | O=C(NCCNS(=O)(=O)C1CC1)Nc1nc2c(s1)-c1c(c(-c3ccccc3)nn1-c1ccccc1Cl)CC2 | < 800
17 | O=C(NCCN1CCOCC1)Nc1nc2c(s1)-c1c(c(-c3cccnc3)nn1-c1ccccc1Cl)CC2 | < 800
18 | CC1CC(c2ccc(O)cc2)CN1C(=O)Nc1nc2c(s1)-c1c(c(-c3cccnc3)nn1-c1ccccc1Cl)CC2 (configuration not stated) | < 800
19 | O=C(NC[C@H]1CCCN1)Nc1nc2c(s1)-c1c(c(-c3cncnc3)nn1-c1ccccc1F)CC2 | < 800
20 | COc1cccc(CNC(=O)Nc2nc3c(s2)-c2c(c(-c4cccnc4)nn2C2CCN(C4CCCC4)CC2)CC3)c1 | < 800

Row | Compound | IC50 [nM]
21 | O=C(NCCNS(=O)(=O)c1cccnc1)Nc1nc2c(s1)-c1c(c(-c3ccccc3)nn1-c1ccccc1Cl)CC2 | < 800
22 | CC(C)c1cnc(CCNC(=O)Nc2nc3c(s2)-c2c(c(-c4cccnc4)nn2-c2ccccc2Cl)CC3)o1 | < 800
23 | CCc1noc(CCNC(=O)Nc2nc3c(s2)-c2c(c(C4CC4)nn2-c2ccccc2Cl)CC3)n1 | < 800
24 | CNC(=O)c1cccc(CNC(=O)Nc2nc3c(s2)-c2c(c(-c4cccnc4)nn2-c2ccccc2Cl)CC3)c1 | < 800
25 | NC(=O)c1cccc(CNC(=O)Nc2nc3c(s2)-c2c(c(-c4cccnc4)nn2-c2ccccc2Cl)CC3)c1 | < 800
26 | CC(C)c1noc(CCNC(=O)Nc2nc3c(s2)-c2c(c(C4CC4)nn2-c2ccccc2Cl)CC3)n1 | < 800
27 | CS(=O)(=O)NCCNC(=O)Nc1nc2c(s1)-c1c(c(-c3ccccc3)nn1-c1ccccc1Cl)CC2 | < 800
28 | O=C(NCc1ccc(N2CCNC2=O)cc1)Nc1nc2c(s1)-c1c(c(-c3ccccc3)nn1-c1cccc(Cl)c1)CC2 | < 800
29 | CC(=O)Nc1cccc(CNC(=O)Nc2nc3c(s2)-c2c(c(-c4cccnc4)nn2C2CCN(C)CC2)CC3)c1 | < 800
30 | O=C(NCc1ccc2cc[nH]c2c1)Nc1nc2c(s1)-c1c(c(-c3cccnc3)nn1-c1ccccc1Cl)CC2 | < 800
31 | CN[C@@H](C)C(=O)N1CCC[C@@H]1CNC(=O)Nc1nc2c(s1)-c1c(c(-c3cncnc3)nn1-c1ccccc1Cl)CC2 | < 800
32 | Cc1nc[nH]c1-c1cccc(CNC(=O)Nc2nc3c(s2)-c2c(c(-c4cccnc4)nn2-c2ccccc2Cl)CC3)c1 | < 800
33 | O=C(Nc1nc2c(s1)-c1c(c(-c3cncnc3)nn1-c1ccccc1Cl)CC2)N1CCC(NC(=O)C(F)(F)F)C1 (configuration not stated) | < 800
34 | CC(=O)NCC1CCCN(C(=O)Nc2nc3c(s2)-c2c(c(-c4cccnc4)nn2-c2ccccc2Cl)CC3)C1 (configuration not stated) | < 800
35 | CC(C)(C)OC(=O)CCNC(=O)Nc1nc2c(s1)-c1c(c(-c3cncnc3)nn1-c1ccccc1Cl)CC2 | < 800
36 | CC(C)(C)OC(=O)N1CCC[C@H]1CNC(=O)Nc1nc2c(s1)-c1c(c(-c3cccnc3)nn1-c1ccccc1Cl)CC2 | < 800
37 | O=C(NCCNS(=O)(=O)C(F)(F)F)Nc1nc2c(s1)-c1c(c(-c3ccccc3)nn1-c1ccccc1Cl)CC2 | < 800
38 | NS(=O)(=O)c1ccc(-n2nc(-c3cccnc3)c3c2-c2sc(NC(=O)NCc4cccc(N5CCNC5=O)c4)nc2CC3)c(Cl)c1 | < 800
39 | CCc1cccc(CNC(=O)Nc2nc3c(s2)-c2c(c(-c4cccnc4)nn2-c2ccccc2Cl)CC3)c1 | < 800

More lines, now with the values ahead:

Row | IC50 [nM] | Compound
40 | < 800 | O=C(Nc1nc2c(s1)-c1c(c(-c3cccnc3)nn1-c1ccccc1Cl)CC2)NC1(c2nc3ccc(Cl)cc3[nH]2)CCCCC1
41 | < 800 | O=C(NCCN1CCNC1=O)Nc1nc2c(s1)-c1c(c(-c3ccccc3)nn1-c1ccccc1Cl)CC2
42 | < 800 | Cc1nc(C)c(S(=O)(=O)NCCNC(=O)Nc2nc3c(s2)-c2c(c(-c4ccccc4)nn2-c2ccccc2Cl)CC3)s1
43 | < 800 | CC(C)c1nnc(CCNC(=O)Nc2nc3c(s2)-c2c(c(-c4ccccc4)nn2-c2cccc(Cl)c2)CC3)o1
44 | < 800 | Nc1c(Br)cc(OCC2CCN(C(=O)Nc3nc4c(s3)-c3c(c(-c5cccnc5)nn3-c3ccccc3Cl)CC4)C2)cc1Br (configuration not stated)
45 | < 800 | CN1CCN(Cc2ccc(NC(=O)Nc3nc4c(s3)-c3c(c(-c5cncnc5)nn3-c3ccccc3F)CC4)cc2)CC1
46 | < 800 | CC(C)(C)OC(=O)CCNC(=O)Nc1nc2c(s1)-c1c(c(-c3cccnc3)nn1C1CCN(C3CCCC3)CC1)CC2
47 | < 800 | CCn1cnc(CCNC(=O)Nc2nc3c(s2)-c2c(c(-c4cccnc4)nn2C2CCN(C4CCCC4)CC2)CC3)c1
48 | < 800 | O=C(NCCc1ccccn1)Nc1nc2c(s1)-c1c(c(-c3cncnc3)nn1-c1ccccc1Cl)CC2
49 | < 800 | O=C(Nc1nc2c(s1)-c1c(c(-c3cccnc3)nn1-c1ccccc1Cl)CC2)N1CCC2(CC1)C(=O)NCN2c1ccccc1
50 | < 800 | CC(C)(C)OC(=O)N1CCC[C@H]1CNC(=O)Nc1nc2c(s1)-c1c(c(-c3cncnc3)nn1-c1ccccc1F)CC2
51 | < 800 | CCOCCNC(=O)Nc1nc2c(s1)-c1c(c(-c3ccccc3)nn1-c1ccccc1Cl)CC2
52 | < 800 | O=C(NCC1CCCN(c2ncccn2)C1)Nc1nc2c(s1)-c1c(c(-c3cccnc3)nn1-c1ccccc1Cl)CC2 (configuration not stated)
53 | < 800 | O=C(NCc1cccc(N2CCNC2=O)c1)Nc1nc2c(s1)-c1c(c(C3CC3)nn1-c1ccccc1Cl)CC2
54 | < 800 | CCc1cnc(CCNC(=O)Nc2nc3c(s2)-c2c(c(-c4cncnc4)nn2-c2ccccc2Cl)CC3)o1
55 | < 800 | O=C(NCc1ccc(CN2CCNC2=O)cc1)Nc1nc2c(s1)-c1c(c(-c3cccnc3)nn1-c1ccccc1Cl)CC2
56 | < 800 | CCc1cccc(CNC(=O)Nc2nc3c(s2)-c2c(c(-c4cccnc4)nn2C2CCN(C)CC2)CC3)c1
57 | < 800 | CNC(=O)c1cccc(CNC(=O)Nc2nc3c(s2)-c2c(c(-c4cccnc4)nn2C2CCN(C4CCCC4)CC2)CC3)c1
